Among the data in US20230023559A1, “ARYLMETHYLENE HETEROCYCLIC COMPOUNDS AS KV1.3 POTASSIUM SHAKER CHANNEL BLOCKERS” (D. E. Shaw Research, LLC, priority 2019, published 2023) are IC50 values, retold here.

For one experiment, the target named is hERG channel (Homo sapiens, UniProt Q12809). Briefly: hERG electrophysiology, automated whole-cell patch clamp (Patchliner). For orientation: hERG is a cardiac potassium channel; its block is linked to QT prolongation.
The next experiment has as its target T1, Kv1.3 potassium channel (Homo sapiens, UniProt P22001).
T1 construct: expressed in transfected cells
Briefly: Kv1.3 potassium channel blocker activity, automated whole-cell patch clamp (Patchliner). It counts as cell-based. To be noted: CHO-K1 cells stably expressing Kv1.3; whole cell current inhibition; read-out: Kv1.3_IC50. A digest of the protocol:
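Peak-current block was recorded on stable Kv1.3 CHO-K1 cells by automated patch clamp, stepping from a −90 mV holding potential to +40 mV for 100 ms at 0.1 Hz with 10 s breaks between trains. Online P/4 leak subtraction, 10 kHz sampling; compound exposure under 10 s per train.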
Background: The patch-clamp technique gives a direct electrical read-out from membranes.

The structures appear in SMILES notation. Where only a bound is given, the exact number is not on record here.

Chain of hERG channel (Q12809 whole entry): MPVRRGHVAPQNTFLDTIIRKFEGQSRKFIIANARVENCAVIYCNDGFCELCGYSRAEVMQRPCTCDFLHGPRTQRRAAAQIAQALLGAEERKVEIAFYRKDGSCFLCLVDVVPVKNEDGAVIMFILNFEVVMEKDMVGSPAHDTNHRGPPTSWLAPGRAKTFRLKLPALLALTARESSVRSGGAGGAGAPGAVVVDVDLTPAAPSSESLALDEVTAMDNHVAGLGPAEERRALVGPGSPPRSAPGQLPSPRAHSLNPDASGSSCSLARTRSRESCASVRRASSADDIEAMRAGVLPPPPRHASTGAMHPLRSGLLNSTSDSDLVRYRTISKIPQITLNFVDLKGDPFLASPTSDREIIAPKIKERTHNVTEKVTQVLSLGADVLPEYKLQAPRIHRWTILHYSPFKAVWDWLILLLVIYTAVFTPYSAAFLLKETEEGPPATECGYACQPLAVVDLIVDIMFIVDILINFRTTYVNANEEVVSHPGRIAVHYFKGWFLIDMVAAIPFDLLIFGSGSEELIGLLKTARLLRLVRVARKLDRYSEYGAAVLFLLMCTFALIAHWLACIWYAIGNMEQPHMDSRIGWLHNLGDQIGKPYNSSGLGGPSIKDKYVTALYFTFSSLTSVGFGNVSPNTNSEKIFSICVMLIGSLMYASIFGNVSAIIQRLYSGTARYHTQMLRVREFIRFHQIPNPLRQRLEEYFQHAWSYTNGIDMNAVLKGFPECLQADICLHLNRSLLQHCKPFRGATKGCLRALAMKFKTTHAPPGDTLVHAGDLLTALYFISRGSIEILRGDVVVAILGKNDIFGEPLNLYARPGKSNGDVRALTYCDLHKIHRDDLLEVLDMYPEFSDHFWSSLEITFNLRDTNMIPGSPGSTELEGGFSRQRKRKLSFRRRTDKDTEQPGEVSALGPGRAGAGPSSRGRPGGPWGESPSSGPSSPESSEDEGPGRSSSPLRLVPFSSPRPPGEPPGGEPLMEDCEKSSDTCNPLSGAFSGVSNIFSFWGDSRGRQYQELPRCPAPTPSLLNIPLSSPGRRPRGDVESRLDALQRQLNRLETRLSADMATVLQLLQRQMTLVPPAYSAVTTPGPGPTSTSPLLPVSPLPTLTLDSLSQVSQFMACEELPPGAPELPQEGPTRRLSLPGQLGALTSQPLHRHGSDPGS
T1 sequence (P22001 whole entry): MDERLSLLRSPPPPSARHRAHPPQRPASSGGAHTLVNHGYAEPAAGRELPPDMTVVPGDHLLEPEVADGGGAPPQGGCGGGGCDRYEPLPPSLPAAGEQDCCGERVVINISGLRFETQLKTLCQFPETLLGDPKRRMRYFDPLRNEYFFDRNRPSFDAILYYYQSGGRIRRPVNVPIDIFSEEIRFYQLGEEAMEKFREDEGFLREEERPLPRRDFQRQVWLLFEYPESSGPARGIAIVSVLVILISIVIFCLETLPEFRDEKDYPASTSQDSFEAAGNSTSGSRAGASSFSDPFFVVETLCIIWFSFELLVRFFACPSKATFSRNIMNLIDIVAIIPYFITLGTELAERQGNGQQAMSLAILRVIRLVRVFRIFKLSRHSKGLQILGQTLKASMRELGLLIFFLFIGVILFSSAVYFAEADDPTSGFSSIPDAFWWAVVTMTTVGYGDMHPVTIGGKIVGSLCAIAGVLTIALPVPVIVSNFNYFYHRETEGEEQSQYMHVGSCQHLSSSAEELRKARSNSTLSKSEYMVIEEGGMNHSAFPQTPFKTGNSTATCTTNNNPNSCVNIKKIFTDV

Usually IC50 stands for the concentration at which inhibition is half-maximal. Consider `N[C@@H](c1cc2ccccc2cc1O)C1CCN(C(=O)[C@H](O)CO)CC1` [Compound 189, (2R)-1-[4-[(R)-amino(3-hydroxynaphthalen-2-yl)methyl]piperidin-1-yl]-2,3-dihydroxypropan-1-one Trifluoroacetic Acid], for which the IC50 is more than 30 µM on hERG channel and less than 0.5 µM on Kv1.3 potassium channel.
In the same order, the values of `N[C@@H](c1cc(Cl)c(Cl)cc1O)C1CCN(C(=O)[C@H]2CCN2)CC1` [Compound 95, (4-((R)-amino(4,5-dichloro-2-hydroxyphenyl)methyl)piperidin-1-yl)((R)-azetidin-2-yl)methanone] are more than 30 µM and less than 0.5 µM.
On the same counts, the results for `CN(C)C(=O)N1CCC(C(N)c2cc(Cl)c(Cl)cc2O)CC1` (stereo not drawn) [Compound 46, 4-(amino(4,5-dichloro-2-hydroxyphenyl)methyl)-N,N-dimethylpiperidine-1-carboxamide] are less than 30 µM and less than 10 µM.
On the same counts, the results for `Nc1ccnc(N2CCC([C@@H](N)c3cc(Cl)c(Cl)cc3O)CC2)c1` [Compound 150, (R)-2-(amino(1-(4-aminopyridin-2-yl)piperidin-4-yl)methyl)-4,5-dichlorophenol Trifluoroacetic Acid] are less than 30 µM and less than 0.5 µM.
Regarding `N[C@@H](c1cc(Cl)c(Cl)cc1O)C1CCN(C(=O)C2CCC(=O)NC2)CC1` (stereo partly drawn) [Compound 299, 5-[4-[(R)-amino(4,5-dichloro-2-hydroxyphenyl)methyl]piperidine-1-carbonyl]piperidin-2-one Trifluoroacetic Acid], the half-maximal inhibitory concentration (IC50) against hERG channel is more than 30 µM; on Kv1.3 potassium channel, less than 0.5 µM.
As for `Nc1[nH]ncc1C(=O)N1CCC([C@@H](N)c2cc(Cl)c(Cl)cc2O)CC1` [Compound 211, 2-[(R)-amino[1-(5-amino-1H-pyrazole-4-carbonyl)piperidin-4-yl]methyl]-4,5-dichlorophenol trifluoroacetic acid], the values for the half-inhibitory concentration (IC50) against hERG channel and on Kv1.3 potassium channel were more than 30 µM and less than 0.5 µM, respectively.
On the same counts, the results for `Nc1cc(C(=O)N2CCC([C@@H](N)c3cc(Cl)c(Cl)cc3O)CC2)ccn1` [Compound 301, 2-[(R)-amino[1-(2-aminopyridine-4-carbonyl)piperidin-4-yl]methyl]-4,5-dichlorophenol trifluoroacetic acid] are more than 30 µM and less than 0.5 µM.
In the same order, the values of `NC(=O)N1CCC([C@@H](N)c2cc(Cl)c(Cl)cc2O)CC1` (single isomer, unassigned) [Compound 82] are more than 30 µM and less than 10 µM.
In the case of `Cc1cc(O)c([C@H](N)C2CCN(C(=O)[C@H](O)CO)CC2)cc1F` [Compound 283, (2R)-1-[4-[(R)-amino(5-fluoro-2-hydroxy-4-methylphenyl)methyl]piperidin-1-yl]-2,3-dihydroxypropan-1-one], the figures for the IC50 on hERG channel and at Kv1.3 potassium channel were more than 30 µM and less than 10 µM, respectively.
On the same counts, the results for `NC(c1c(O)cc(Cl)c(Cl)c1F)C1CCN(C(=O)[C@H](O)CO)CC1` (stereo partly drawn) [Compound 328, (2R)-1-[4-[amino(3,4-dichloro-2-fluoro-6-hydroxyphenyl)methyl]piperidin-1-yl]-2,3-dihydroxypropan-1-one Trifluoroacetic Acid] are more than 30 µM and less than 0.5 µM.
For the molecule `N[C@@H](c1cc(Cl)c(Cl)cc1O)C1CCN(C(=O)[C@H]2CCC(=O)NC2)CC1` (single isomer, unassigned; isomer 1) [Compound 221], the values for the half-maximal inhibitory concentration (IC50) on hERG channel and at Kv1.3 potassium channel were more than 30 µM and less than 0.5 µM, respectively.
On the same counts, the results for `N[C@@H](c1cc(Cl)c(Cl)cc1O)C1CCN(C(=O)Cc2cn[nH]c2)CC1` [Compound 162, 1-[4-[(R)-amino(4,5-dichloro-2-hydroxyphenyl)methyl]piperidin-1-yl]-2-(1H-pyrazol-4-yl)ethan-1-one trifluoroacetic acid] are more than 30 µM and less than 0.5 µM.
On the same counts, the results for `N[C@@H](c1cc(Cl)c(Cl)cc1O)C1CCN(C(=O)c2cnc[nH]2)CC1` [Compound 164, 2-[(R)-amino[1-(1H-imidazole-4-carbonyl)piperidin-4-yl]methyl]-4,5-dichlorophenol formic acid] are more than 30 µM and less than 10 µM.
Consider `N[C@@H](c1c(O)cc(Cl)c(Cl)c1Cl)C1CCN(C(=O)[C@H](O)CO)CC1` [Compound 188, (R)-1-(4-((R)-amino(2,3,4-trichloro-6-hydroxyphenyl)methyl)piperidin-1-yl)-2,3-dihydroxypropan-1-one Trifluoroacetic Acid], for which the results for the IC50 against hERG channel and on Kv1.3 potassium channel were more than 30 µM and less than 10 µM, respectively.
In the same order, the values of `Cc1cc(O)c([C@H](N)C2CCN(C(=O)CO)CC2)cc1Cl` [Compound 233, (R)-1-(4-(amino(5-chloro-2-hydroxy-4-methylphenyl)methyl)piperidin-1-yl)-2-hydroxyethan-1-one trifluoroacetic acid] are more than 30 µM and less than 0.5 µM.
In the same order, the values of `CO[C@H](CO)C(=O)N1CCC([C@@H](N)c2cc(Cl)c(Cl)cc2O)CC1` [Compound 168, (2R)-1-[4-[(R)-amino(4,5-dichloro-2-hydroxyphenyl)methyl]piperidin-1-yl]-3-hydroxy-2-methoxypropan-1-one trifluoroacetic acid] are more than 30 µM and less than 0.5 µM.
On the same counts, the results for `N[C@@H](c1cc(Cl)c(Cl)cc1O)C1CCN(C(=O)C2COCCO2)CC1` (stereo partly drawn) [Compound 137, 2-[(R)-amino[1-(1,4-dioxane-2-carbonyl)piperidin-4-yl]methyl]-4,5-dichlorophenol trifluoroacetic acid] are less than 30 µM and less than 0.5 µM.
Consider `N[C@@H](c1cc(Cl)c(Cl)cc1O)C1CCN(C(=O)c2cn[nH]n2)CC1` [Compound 157, 2-[(R)-amino[1-(1H-1,2,3-triazole-4-carbonyl)piperidin-4-yl]methyl]-4,5-dichlorophenol trifluoroacetic acid], for which the values for the IC50 against hERG channel and on Kv1.3 potassium channel were more than 30 µM and less than 0.5 µM, respectively.
For the molecule `Nc1nnc(N2CCC([C@@H](N)c3cc(Cl)c(Cl)cc3O)CC2)s1` [Compound 151, 2-[(R)-amino[1-(5-amino-1,3,4-thiadiazol-2-yl)piperidin-4-yl]methyl]-4,5-dichlorophenol Trifluoroacetic Acid], the 50% inhibitory concentration (IC50) against hERG channel is less than 30 µM; at Kv1.3 potassium channel, less than 10 µM.
In the same order, the values of `C[C@@H](N)C(=O)N1CCC(C(N)c2cc(Cl)c(Cl)cc2O)CC1` (stereo partly drawn) [Compound 54, (2R)-2-amino-1-(4-(amino(4,5-dichloro-2-hydroxyphenyl)methyl)piperidin-1-yl)propan-1-one Trifluoroacetic Acid] are more than 30 µM and less than 0.5 µM.
In the same order, the values of `C[C@H](N)C(=O)N1CCC([C@H](N)c2cc(Cl)c(Cl)cc2O)CC1` (single isomer, unassigned) [Compound 75] are more than 30 µM and less than 10 µM.
Consider `N[C@@H](c1cc(Cl)c(Cl)cc1O)C1CCN(C(=O)c2ccc(=O)[nH]c2)CC1` [Compound 305, 5-[4-[(R)-amino(4,5-dichloro-2-hydroxyphenyl)methyl]piperidine-1-carbonyl]-1,2-dihydropyridin-2-one trifluoroacetic acid], for which the half-inhibitory concentration (IC50) was more than 30 µM against hERG channel and less than 0.5 µM on Kv1.3 potassium channel.
In the same order, the values of `N[C@@H](c1cc(Cl)c(Cl)cc1O)C1CCN(C(=O)[C@@H]2CCC(=O)N2)CC1` [Compound 166, (5S)-5-[4-[(R)-amino(4,5-dichloro-2-hydroxyphenyl)methyl]piperidine-1-carbonyl] pyrrolidin-2-one trifluoroacetic acid] are more than 30 µM and less than 10 µM.
Turning to `Cc1cc(O)c([C@H](N)C2CCN(C(=O)[C@@H]3OCC[C@@H]3O)CC2)cc1Cl` [Compound 335, (2R,3S)-2-[4-[(R)-amino(5-chloro-2-hydroxy-4-methylphenyl)methyl]piperidine-1-carbonyl]oxolan-3-ol trifluoroacetic acid], the concentration for half-maximal inhibition (IC50) was more than 30 µM against hERG channel and less than 0.5 µM at Kv1.3 potassium channel.
Take `NC(=O)N1CCC(C(N)c2cc(Cl)c(Cl)cc2O)CC1` (stereo not drawn) [Compound 53, 4-[amino(4,5-dichloro-2-hydroxyphenyl)methyl]piperidine-1-carboxamide]: the results for the IC50 at hERG channel and on Kv1.3 potassium channel were more than 30 µM and less than 0.5 µM, respectively.
With `NC(c1cc(Cl)c(Cl)cc1O)C1CNC1` (stereo not drawn) [Compound 52, 2-[amino(azetidin-3-yl)methyl]-4,5-dichlorophenol Trifluoroacetic Acid], the concentration for half-maximal inhibition (IC50) against hERG channel is more than 30 µM; on Kv1.3 potassium channel, less than 10 µM.
On the same counts, the results for `N[C@@H](c1cc(Cl)c(Cl)cc1O)C1CCNCC1` (single isomer, unassigned) [Compound 16, Trifluoroacetic Acid] are more than 30 µM and less than 0.5 µM.
On the same counts, the results for `Cc1cc(O)c([C@H](N)C2CCN(C(=O)[C@H](O)CO)CC2)cc1Cl` [Compound 190, (2R)-1-[4-[(R)-amino(5-chloro-2-hydroxy-4-methylphenyl)methyl]piperidin-1-yl]-2,3-dihydroxypropan-1-one Trifluoroacetic Acid] are more than 30 µM and less than 0.5 µM.
On the same counts, the results for `Cc1cc(O)c([C@H](N)C2CCN(S(=O)(=O)C3CCNC3)CC2)cc1Cl` (stereo partly drawn) [Compound 236, 2-[(R)-amino[1-(pyrrolidine-3-sulfonyl)piperidin-4-yl]methyl]-4-chloro-5-methylphenol Trifluoroacetic Acid] are more than 30 µM and less than 0.5 µM.
As for `O=C([C@@H]1CCNC1)N1CCC(Cc2c(O)ccc(Cl)c2Cl)CC1` [Compound 122, 3,4-dichloro-2-([1-[(3R)-pyrrolidine-3-carbonyl]piperidin-4-yl]methyl)phenol Trifluoroacetic Acid], the IC50 against hERG channel was less than 30 µM; at Kv1.3 potassium channel, less than 0.5 µM.
